Test results: PubChem BioAssay (NCI)
“And” between values parts separate entries of the source, which are not always exact repeats. Equal values may be shown once.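 All cell lines were grown in 96-well plates and treated with compound for 48 hours. GI50: concentration for 50% inhibition of growth. TGI: concentration producing complete growth inhibition.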

Assays:
Assay in all cases: growth of human tumour cells (NCI), 48 h
[1] = tested on: 786-0 renal
[2] = tested on: A498 renal
[3] = tested on: A549 NSCLC
[4] = tested on: ACHN renal
[5] = tested on: BT-549 breast
[6] = tested on: CAKI-1 renal
[7] = tested on: CCRF-CEM leukemia
[8] = tested on: COLO 205 colon
[9] = tested on: DU-145 prostate
[10] = tested on: EKVX NSCLC
[11] = tested on: HCC-2998 colon
[12] = tested on: HCT-116 colon
[13] = tested on: HCT-15 colon
[14] = tested on: HL-60(TB) leukemia
[15] = tested on: HOP-62 NSCLC
[16] = tested on: HOP-92 NSCLC
[17] = tested on: HS 578T breast
[18] = tested on: HT29 colon
[19] = tested on: IGROV1 ovarian
[20] = tested on: K-562 leukemia
[21] = tested on: KM12 colon
[22] = tested on: LOX IMVI melanoma
[23] = tested on: M14 melanoma
[24] = tested on: MALME-3M melanoma
[25] = tested on: MCF7 breast
[26] = tested on: MDA-MB-231 breast
[27] = tested on: MDA-MB-435
[28] = tested on: MOLT-4 leukemia
[29] = tested on: NCI-H226 lung
[30] = tested on: NCI-H23 lung
[31] = tested on: NCI-H460 lung
[32] = tested on: NCI-H522 lung
[33] = tested on: NCI/ADR-RES ovarian
[34] = tested on: OVCAR-3 ovarian
[35] = tested on: OVCAR-4 ovarian
[36] = tested on: OVCAR-5 ovarian
[37] = tested on: OVCAR-8 ovarian
[38] = tested on: PC-3 prostate
[39] = tested on: RPMI-8226 leukemia
[40] = tested on: RXF 393 renal
[41] = tested on: SF-268 CNS
[42] = tested on: SF-295 CNS
[43] = tested on: SF-539 CNS
[44] = tested on: SK-MEL-2 melanoma
[45] = tested on: SK-MEL-28 melanoma
[46] = tested on: SK-MEL-5 melanoma
[47] = tested on: SK-OV-3 ovarian
[48] = tested on: SN12C renal
[49] = tested on: SNB-19 CNS
[50] = tested on: SNB-75 CNS
[51] = tested on: SR leukemia
[52] = tested on: SW-620 colon
[53] = tested on: T-47D breast
[54] = tested on: TK-10 renal
[55] = tested on: U251 CNS
[56] = tested on: UACC-257 melanoma
[57] = tested on: UACC-62 melanoma
[58] = tested on: UO-31 renal

Oc1nc(NCCc2ccccc2)sc1/C=C1\C=Nc2ncccc21
GI50 [1]: 3.03 µM and 3.02 µM | TGI [1]: 11.2 µM and 9.85 µM | GI50 [2]: 1.95 µM and 1.84 µM | TGI [2]: 4.19 µM and 4.45 µM | GI50 [3]: 3.18 µM and 3.67 µM | TGI [3]: 12.5 µM and 14.6 µM | GI50 [4]: 2.45 µM and 2.7 µM | TGI [4]: 19.1 µM and 10.8 µM | GI50 [5]: 1.23 µM and 1.35 µM | TGI [5]: 3.26 µM and 3.34 µM | GI50 [6]: 2.61 µM and 5.34 µM | TGI [6]: 14 µM and > 100 µM | GI50 [7]: 3.31 µM and 2.42 µM | TGI [7]: 13.9 µM and 7.8 µM | GI50 [8]: 1.93 µM and 2.96 µM | TGI [8]: 5.95 µM and 11 µM | GI50 [9]: 2.96 µM and 3.09 µM | TGI [9]: 12.8 µM and 16.5 µM | GI50 [10]: 3.18 µM and 3.52 µM | TGI [10]: 29.6 µM and 26.9 µM | GI50 [11]: 3.6 µM and 6.06 µM | TGI [11]: 13.2 µM and 24.3 µM | GI50 [12]: 1.03 µM and 1.23 µM | TGI [12]: 11.1 µM and 6.5 µM | GI50 [13]: 2.63 µM and 3.15 µM | TGI [13]: 13.9 µM and 33.5 µM | GI50 [14]: 2.34 µM and 2.14 µM | TGI [14]: 6.48 µM and 6.88 µM | GI50 [15]: 2.47 µM and 3.43 µM | TGI [15]: 7.86 µM and 9.47 µM | GI50 [16]: 1.3 µM and 1.43 µM | TGI [16]: 8.82 µM and 7.62 µM | GI50 [17]: 2.55 µM and 3.19 µM | TGI [17]: 7.44 µM and 9.51 µM | GI50 [18]: 2.8 µM and 4 µM | TGI [18]: 11.4 µM and 26.7 µM | GI50 [19]: 2.51 µM and 3.03 µM | TGI [19]: 18 µM and 50.4 µM | GI50 [20]: 4.12 µM and 4.7 µM | TGI [20]: 20 µM and 79.6 µM | GI50 [21]: 2.69 µM and 2.71 µM | TGI [21]: 9.91 µM and 13 µM | GI50 [22]: 2.36 µM and 2.61 µM | TGI [22]: 10.6 µM and 9.37 µM | GI50 [23]: 3.72 µM and 3.49 µM | TGI [23]: 12.5 µM and 10.4 µM | GI50 [24]: 3.28 µM | TGI [24]: 8.93 µM | GI50 [25]: 2.79 µM and 2.95 µM | TGI [25]: 11.3 µM and 11.5 µM | GI50 [26]: 3.05 µM and 3.74 µM | TGI [26]: 9.27 µM and 21.6 µM | GI50 [27]: 2.41 µM and 2.83 µM | TGI [27]: 8.54 µM and 12.2 µM | GI50 [28]: 3.17 µM and 2.77 µM | TGI [28]: 11.6 µM and 11 µM | GI50 [29]: 2.99 µM and 3.27 µM | TGI [29]: 14.3 µM and 16.1 µM | GI50 [30]: 1.62 µM and 2.4 µM | TGI [30]: 5.72 µM and 8.12 µM | GI50 [31]: 3.01 µM and 3.16 µM | TGI [31]: 10.2 µM and 13.6 µM | GI50 [32]: 1.43 µM and 1.39 µM | TGI [32]: 12.1 µM and 11.6 µM | GI50 [33]: 12.2 µM and 8.3 µM | TGI [33]: 50 µM and > 100 µM | GI50 [34]: 2.16 µM and 2.06 µM | TGI [34]: 9.39 µM and 7.33 µM | GI50 [35]: 2.95 µM and 3.69 µM | TGI [35]: 11.7 µM and 18.7 µM | GI50 [36]: 2.94 µM and 2.93 µM | TGI [36]: 27.8 µM and 16.9 µM | GI50 [37]: 2.91 µM and 3.12 µM | TGI [37]: 13.4 µM and 14.8 µM | GI50 [38]: 3.27 µM and 3.87 µM | TGI [38]: 12.2 µM and 19 µM | GI50 [39]: 3.21 µM and 2.99 µM | TGI [39]: 12.5 µM and 16.1 µM | GI50 [40]: 1.91 µM and 2.53 µM | TGI [40]: 4.08 µM and 5.72 µM | GI50 [41]: 2.72 µM and 2.63 µM | TGI [41]: 9.07 µM and 8.87 µM | GI50 [42]: 3.32 µM and 3.14 µM | TGI [42]: 13.2 µM and 23.6 µM | GI50 [43]: 1.32 µM and 1.47 µM | TGI [43]: 3.82 µM and 3.65 µM | GI50 [44]: 2.4 µM and 2.94 µM | TGI [44]: 6.65 µM and 9.08 µM | GI50 [45]: 2.83 µM and 2.52 µM | TGI [45]: 13.6 µM and 7.58 µM | GI50 [46]: 2.45 µM and 2.83 µM | TGI [46]: 6.67 µM and 7.88 µM | GI50 [47]: 2.08 µM and 2.77 µM | TGI [47]: 15.2 µM and 9.07 µM | GI50 [48]: 2.63 µM and 3.92 µM | TGI [48]: 12.9 µM and 74.1 µM | GI50 [49]: 2.47 µM and 2.82 µM | TGI [49]: 11.2 µM and 18.7 µM | GI50 [50]: 1.81 µM and 1.8 µM | TGI [50]: 4.11 µM and 4.29 µM | GI50 [51]: 0.397 µM and 0.554 µM | TGI [51]: 17.7 µM and 7.79 µM | GI50 [52]: 1.92 µM and 2.37 µM | TGI [52]: 8.09 µM and 11.9 µM | GI50 [53]: 2.15 µM and 3.22 µM | TGI [53]: 9.09 µM and 8.2 µM | GI50 [54]: 3.59 µM and 3.04 µM | TGI [54]: 15.5 µM and 17.7 µM | GI50 [55]: 2.29 µM and 3.26 µM | TGI [55]: 7.89 µM and 11.5 µM | GI50 [56]: 3.49 µM and 3.36 µM | TGI [56]: 8.68 µM and 8.42 µM | GI50 [57]: 2.38 µM and 2.93 µM | TGI [57]: 8.56 µM and 8.7 µM | GI50 [58]: 3.53 µM and 3.83 µM | TGI [58]: 12.4 µM and 84.6 µM
